Experimental data from patent publication US10166218B2, “3-(1H-indol-2-yl)-1H-pyrazolo[3,4-C]pyridines and therapeutic uses thereof” (Samumed, LLC, priority 2015, dated 2019).
pEC50: −log10 of the molar value.

Key:
Format in all cases: cell-based
[1] = tested on: Wnt activity (Sp5-Luc reporter, TCF/LEF binding sites) in SW480 colon carcinoma cells; test: Screening assay for Wnt activity: Sp5-Luc reporter gene assay in stably transduced SW480 cells; settings: Homo sapiens, overnight incubation
Outline: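 Luminescence read-out (BrightGlo) from stable Sp5-Luc SW480 cells, normalized to DMSO-only wells. Cells were treated overnight at 37° C in 1% FBS medium across a 1:3, 10-point series starting at 10 μM. EC50 from variable-slope four-parameter regression; percent inhibition at 10 μM given where EC50 >10 μM.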

[2] = tested on: primary human fibroblasts derived from IPF patients (LL29 cells) treated with TGF-β1; α-smooth muscle actin (αSMA); test: Inhibition of the fibrotic process: αSMA staining in TGF-β1 treated primary human fibroblasts from IPF patients (LL29 cells); settings: Fibroblast, 96 h, TGF-β1 20 ng/mL, 4 days, % cells positive for αSMA
Outline: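 Compound dilutions from 10 μM down to […] are dispensed, LL29 cells added in F12 with 1% FBS, and TGF-β1 (20 ng/mL) follows after 1 h. After 4 days, live-cell αSMA positivity is measured by immunofluorescence and normalized to TGF-β1-treated wells to derive EC50.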

IL-6 (THP-1 cells) = test: Inhibition of IL-6 in LPS-stimulated THP-1 human monocyte cells (HTRF); settings: inhibition of IL-6 in LPS-stimulated THP-1 cells, HTRF, 10-point dose-response starting from 10 μM
Outline: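 THP-1 cells, serum-reduced (1% FBS) for 24 h, were preincubated with compound (10-point 1:3 series from 10 μM, 0.1% DMSO) for 2 h, then stimulated with 500 ng/mL LPS for 22 h at 37° C. IL-6 was read by HTRF (665/620 nm ratio) and normalized to DMSO. EC50 from four-parameter fit; % inhibition at 10 μM given if EC50 >10 μM.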

SW480 colon cancer cells = test: Cell viability assay (CellTiter-Blue) in SW480 colon cancer cells; settings: Homo sapiens, 96 h, four days, CellTiter-Blue
Outline: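 Approximately 2×10^3 SW480 cells per well are seeded with compound (8 points, threefold steps, top 10 μM) and incubated four days at 37 °C. CellTiter-Blue is then added for about 3 h and fluorescence read. Non-linear regression gives EC50; for values beyond 10 μM, percent inhibition at that concentration is listed.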

SMILES	pEC50 [1]	pEC50 (IL-6 (THP-1 cells))	pEC50 (SW480 colon cancer cells)	pEC50 [2]
CC(C)(C)CC(=O)Nc1cncc(-c2cc3c(-c4cc5c(-c6ccccc6F)cccc5[nH]4)n[nH]c3cn2)c1 [Compound 72, N-(5-(3-(4-(2-Fluorophenyl)-1H-indol-2-yl)-1H-pyrazolo[3,4-c]pyridin-5-yl)pyridin-3-yl)-3,3-dimethylbutanamide]	5.77	5.49	5.35	6.15
CC(C)(C)CC(=O)Nc1cncc(-c2cc3c(-c4cc5c(-c6cccc(F)c6)cccc5[nH]4)n[nH]c3cn2)c1 [Compound 16, N-(5-(3-(4-(3-Fluorophenyl)-1H-indol-2-yl)-1H-pyrazolo[3,4-c]pyridin-5-yl)pyridin-3-yl)-3,3-dimethylbutanamide]	5.71	5.73	5.41	6.19
CS(=O)(=O)NCc1cc(F)cc(-c2cccc3[nH]c(-c4n[nH]c5cnc(-c6cncc(NC(=O)C7CCCCC7)c6)cc45)cc23)c1 [Compound 499, N-(5-(3-(4-(3-Fluoro-5-(methylsulfonamidomethyl)phenyl)-1H-indol-2-yl)-1H-pyrazolo[3,4-c]pyridin-5-yl)pyridin-3-yl)cyclohexanecarboxamide]	5.75	5.75	5.34	5.32
CC(C)CC(=O)Nc1cncc(-c2cc3c(-c4cc5c(N6CCCCC6)cccc5[nH]4)n[nH]c3cn2)c1 [Compound 170, 3-Methyl-N-(5-(3-(4-(piperidin-1-yl)-1H-indol-2-yl)-1H-pyrazolo[3,4-c]pyridin-5-yl)pyridin-3-yl)butanamide]	5.88	5.37	5.33	6.04
CC(C)(C)C(=O)Nc1cncc(-c2cc3c(-c4cc5c(N6CCCCC6)cccc5[nH]4)n[nH]c3cn2)c1 [Compound 176, N-(5-(3-(4-(Piperidin-1-yl)-1H-indol-2-yl)-1H-pyrazolo[3,4-c]pyridin-5-yl)pyridin-3-yl)pivalamide]	5.52	5.05	5.15	6.15

Stronger by pEC50 [1], values ahead:

pEC50 [1]	pEC50 (IL-6 (THP-1 cells))	pEC50 (SW480 colon cancer cells)	SMILES	pEC50 [2]
6.31	5.51	5.79	CC(C)Nc1cncc(-c2cc3c(-c4cc5c(-c6ccccc6F)cccc5[nH]4)n[nH]c3cn2)c1 [Compound 68, 5-(3-(4-(2-Fluorophenyl)-1H-indol-2-yl)-1H-pyrazolo[3,4-c]pyridin-5-yl)-N-isopropylpyridin-3-amine]	6.67
6.38	5.40	6.44	Fc1cccc(-c2cccc3[nH]c(-c4n[nH]c5cnc(-c6cncc(OCc7ccccc7)c6)cc45)cc23)c1 [Compound 546, 5-(5-(Benzyloxy)pyridin-3-yl)-3-(4-(3-fluorophenyl)-1H-indol-2-yl)-1H-pyrazolo[3,4-c]pyridine]	6.63
6.44	6.00	5.76	CC(C)Nc1cncc(-c2cc3c(-c4cc5c(N6CCCCC6)cccc5[nH]4)n[nH]c3cn2)c1 [Compound 180, N-Isopropyl-5-(3-(4-(piperidin-1-yl)-1H-indol-2-yl)-1H-pyrazolo[3,4-c]pyridin-5-yl)pyridin-3-amine]	6.57
6.80	6.28	6.16	CC(C)Nc1cncc(-c2cc3c(-c4cc5c(-c6cc(F)cc(CNS(C)(=O)=O)c6)cccc5[nH]4)n[nH]c3cn2)c1 [Compound 488, N-(3-Fluoro-5-(2-(5-(5-(isopropylamino)pyridin-3-yl)-1H-pyrazolo[3,4-c]pyridin-3-yl)-1H-indol-4-yl)benzyl)methanesulfonamide]	6.74
